Reference: patent US20260325538A1, “THERAPY” (priority 2023, published 2026)

Columns and labels:
[1] = system: Klebsiella pneumoniae ST147 (NDM-1 and KPC-2); assay: Checkerboard MIC, fixed ratio of sBLI to antibiotic (Examples 7-10); assay type: cell-based; conditions: caMHB 29.4 μM Zn2+
Description: The antibiotics and serine β-lactamase-inhibitors (sBLIs) were purchased from the following suppliers: Ceftazidime (CAZ): Sigma-Aldrich; Cefepime (FEP): Sigma-Aldrich; Cefpodoxime (CEFP): MedChemExpress; Sulbactam (SUL): Sigma-Aldrich Avibactam (AVI): Biosynth; Vaborbactam (VAB): ABCR; Tazobactam (TAZ): Sigma-Aldrich; Taniborbactam (TAN): Sigma-Aldrich.
In each of Examples 3-23, the compound of Example 26 of WO 2018/033719 was employed as the zinc chelator. The following abbreviations are used in these examples: sBLI means serine-β-lactamase inhibitor; CFU means colony-forming unit, which is a group of microbes that grows from a single cell on a petri plate; DMSO means dimethyl sulfoxide; MHB means Mueller-Hinton broth; caMHB means cation-adjusted Mueller-Hinton broth; MIC means minimum inhibitory concentration—the lower the MIC, the more efficient the combination against the respective bacterial strain.
General Protocol Used in Examples 3-10 Employing a Fixed Ratio of sBLI to Antibiotic within Each Experiment:
(§1) Antimicrobial susceptibility testing (AST) by broth microdilution (MIC determination) was performed according to The European Committee on Antimicrobial Susceptibility Testing (EUCAST) guidelines (see Reading guide for broth microdilution Version 5.0, 2024: https://www.eucast.org).
Sterile clear round bottom polystyrene (non-treated) 96-well microplates (Corning 3788) were used for making serial two-fold dilutions of the antibiotic and the serine sBLI in cation-adjusted Mueller Hinton II broth (caMHB; Thermo Scientific, T3462, containing 29.4 μM Zn^2+), across the columns of the microtiter plate ([…]; columns 1-12). The checkerboard plates were all made by keeping the sBLI at a fixed ratio relative to antibiotic (absolute concentrations of each, in μg/mL) to all wells containing sample in each plate. Additionally, a set of samples were included in each test plate, where the zinc chelator was added, at various fixed concentrations, of 16 μg/mL, 8 μg/mL and/or 4 μg/mL (as specified in each Example). All sample wells contained growth medium (caMHB), and inoculated bacteria at a final inoculum between 3-7×10^5 CFU/mL. […] Synergy for the triple combination (antibiotic, sBLI, and zinc chelator) was defined as when the MIC in rows containing the zinc chelator in combination with antibiotic and sBLI (triple combination), was lower than for rows containing antibiotic and sBLI (double combination; no zinc chelator).
(§2) Two technical replicates were performed for each sample. An X in rows 1-8 in the table indicates bacterial growth, while a blank cell indicates no growth. Concentrations (μg/mL) of CAZ are given in row 0a). Concentrations (μg/mL) of AVI are given in row 0b. The zinc chelator was added in fixed concentrations, at 16 μg/mL in rows 3 and 4, at 8 μg/mL in rows 5 and 6, and 4 μg/mL in rows 7 and 8. As a control, the effect of CAZ and AVI (no zinc chelator) was tested (rows 1 and 2). All wells contained bacterial growth medium (caMHB, 29.4 μM Zn^2+) and were inoculated with the test bacterium. The grey cells indicate the CAZ MIC.
as §2, with “FEP” for “CAZ”, “0a.” for “0a).”
Two technical replicates were performed for each sample. An X in rows 1-8 in the table indicates bacterial growth, while a blank cell indicates no growth. Concentrations (μg/mL) of FEP are given in row 0a. Concentrations (μg/mL) of SUL are given in row 0b. […]

[2] = system: bacteria which rely on SBLs; conditions: in combination with meropenem; cited from earlier work
[3] = system: various bacterial strains harbouring resistance enzymes; assay: MIC determination, checkerboard assays (summary statements); assay type: cell-based; conditions: Examples 3-23
Protocol: Thus, in most of the experiments, a Fractional Inhibitory Concentration Index (FICI) could not be calculated, and the conclusion of synergy was made through visual reading of the bacterial growth in the wells in the combination experiment.
as §1
Sterile clear round bottom polystyrene (non-treated) 96-well microplates (Corning 3788) were used for making serial two-fold dilutions of the antibiotic and the serine sBLI in cation-adjusted Mueller Hinton II broth (caMHB; Thermo Scientific, T3462, containing 29.4 μM Zn^2+), across the columns of the microtiter plate (256-0.06 μg/mL; columns 1-12). The checkerboard plates were all made by keeping the sBLI at a fixed ratio relative to antibiotic (absolute concentrations of each, in μg/mL) to all wells containing sample in each plate. Additionally, a set of samples were included in each test plate, where the zinc chelator was added, at various fixed concentrations, of 16 μg/mL, 8 μg/mL and/or 4 μg/mL (as specified in each Example). All sample wells contained growth medium (caMHB), and inoculated bacteria at a final inoculum between 3-7×10^5 CFU/mL. […]

## CN(C[C@H](O)[C@@H](O)[C@H](O)[C@H](O)CO)C(=O)c1ccc(CN(Cc2ccccn2)Cc2ccccn2)nc1 [zinc chelator]
[1]; zinc chelator 4 μg/mL, with FEP and TAZ (fixed ratio)
  synergy with the zinc chelator: Synergy
[1]; zinc chelator 8 μg/mL, with CAZ and AVI (fixed ratio)
  synergy with the zinc chelator: Synergy
[1]; zinc chelator 8 μg/mL, with FEP and AVI (fixed ratio)
  synergy with the zinc chelator: Synergy
[1]; zinc chelator 8 μg/mL, with FEP and SUL (fixed ratio)
  synergy with the zinc chelator: Synergy
[1]; zinc chelator 8 μg/mL, with FEP and TAZ (fixed ratio)
  synergy with the zinc chelator: Synergy
[1]; zinc chelator 16 μg/mL, with CAZ and AVI (fixed ratio)
  synergy with the zinc chelator: Synergy
[1]; zinc chelator 16 μg/mL, with FEP and AVI (fixed ratio)
  synergy with the zinc chelator: Synergy
[1]; zinc chelator 16 μg/mL, with FEP and SUL (fixed ratio)
  synergy with the zinc chelator: Synergy
[1]; zinc chelator 16 μg/mL, with FEP and TAZ (fixed ratio)
  synergy with the zinc chelator: Synergy
[2]
  effect of combination with meropenem: no effect
[3]
  intrinsic antibiotic effect: neither the zinc chelator nor the sBLI have intrinsic antibiotic effect
